In PubChem BioAssay AID743417 (Broad Institute, 2014):
Where “and” joins values, the source holds several entries; their conditions need not be identical. Equal entries are not always repeated. Results filed as inconclusive are left out. Calls of active or inactive are those of the source.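 The calls were made as follows: active = compounds lowering the luciferase signal with a fitted half-maximal dose at most twice their top valid dose (cut at about 30 µM in these data); inconclusive = flat fits with moderate signal loss, or poor fits; inactive = the rest.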

What follows are compounds tested on Clone20 osteoblast Shn3 3'UTR firefly luciferase, 24 h (assay: Shn3 3'UTR reporter inhibitors, dose response, cell-based, Clone20 osteoblasts, luminescence, dry powder, set 2 (AID 743417)).

SMILES	AC50
CCN1CCN(Cc2ccc(NC(=O)c3cc(NC(=O)c4cncc(-c5cccs5)c4)cc(OC)c3)cc2C(F)(F)F)CC1	9.68 µM
c1ccc(CNc2c(-c3cccc(SC4CCCCC4)c3)nc3ccccn23)cc1	3.46 µM
COc1ccccc1C(=O)Nc1nc2ccccc2[nH]1	0.868 µM
CC(C)c1nnc(NC(=O)CCS(=O)(=O)c2nc(-c3cccs3)cc(C(F)(F)F)n2)s1	3.02 µM
CCCCCOC(=O)c1[nH]c2c(c1C)C(=O)CC(c1ccco1)C2 (centres undefined)	1.49 µM
Cc1cccc(N2CCN(C(=O)CSCc3c(C)noc3C)CC2)c1C	2.41 µM
Cc1cc(C(=O)NC2CCCc3c2cnn3-c2cccc(C)c2C)n(C)n1 (centres undefined)	< 0.26 µM
COc1cccc(C(NC(C)=O)c2ccc3cccnc3c2O)c1 (centres undefined)	1.39 µM
CCCC(=O)NC(c1ccc(Cl)cc1Cl)c1ccc2cccnc2c1O (centres undefined)	0.638 µM
CC1CC(C)(C)CC2(C1)NC(=O)N(CC(=O)N1CCN(Cc3ccc(C#N)cc3)CC1)C2=O (centres undefined)	1.47 µM
CCCCCCCN(c1ccccc1)[C@@H]1C[C@H]2CCCC(=O)N3CC[C@@H](C1)[C@@H]23	11.5 µM
COc1ccc2c(c1OC)C(=O)OC2Nc1nc(-c2ccccc2)cs1 (centres undefined)	4.7 µM
CC(Oc1ccc(Cl)cc1Cl)c1nc(-c2ccc(NC(=O)c3ccncc3)cc2)no1 (centres undefined)	3.93 µM
Cc1cc(C2=NNC(=NC3CC3)SC2)c(C)n1-c1ccccc1F	< 0.26 µM
O=C(C(=Cc1ccccc1)CN1CCCCC1)c1ccccc1	3.18 µM
CC(=O)Nc1ccc(NC(=O)c2nc(S(=O)(=O)Cc3cccc(C)c3)ncc2Cl)cc1	0.528 µM
CCCCC(=O)NC(c1ccc(Cl)cc1Cl)c1ccc2cccnc2c1O (centres undefined)	0.67 µM
COc1ccc(-c2cc(C(F)(F)F)nc(S(C)(=O)=O)n2)cc1	4.46 µM
C=C1C(=O)[C@]23C[C@H]1CCC2[C@]1(C)CCC[C@@](C)(C(=O)O)C1C[C@@H]3O (some centres undefined)	1.2 µM
COc1ccc(CNC(=O)c2cccc3c(-c4cccnc4)coc23)cc1OC	0.9 µM
Cc1cccc(CS(=O)(=O)c2ncc(Cl)c(C(=O)NCc3ccccc3)n2)c1	2.94 µM
CCOc1ccc2nc3cc(NCc4ccc(OC)cc4)ccc3c(N)c2c1	6.69 µM
Cc1ccc(N/C(N)=N/c2nc(C)cc(N3CCCCC3)n2)c(C)c1	0.891 µM
COc1ccc(CC(=O)Nc2cccc(S(=O)(=O)N3CCCCCC3)c2)cc1OC	2.27 µM
Cc1cccc(NC(=O)CSc2nc3ccccc3c(=O)n2C)c1C	2.98 µM
CC(Sc1nc2ccccc2c(=O)n1C)C(=O)N(C)C1CCCCC1 (centres undefined)	2.27 µM

SMILES	AC50
CCC(=O)NC(c1ccc(OC)c(OC)c1)c1cc(Cl)c2cccnc2c1O (centres undefined)	< 0.26 µM
CN(CC(=O)Nc1cccc(S(=O)(=O)N2CCOCC2)c1)CC(=O)Nc1ccc(Cl)c(C(F)(F)F)c1	2.4 µM
C=C1C(=O)O[C@H]2[C@H]1[C@H](OC(=O)CC(=O)O[C@@H]1C[C@@H](C)[C@@H]3C=CC(=O)[C@@]3(C)[C@H]3OC(=O)C(=C)[C@H]13)C[C@@H](C)[C@H]1C=CC(=O)[C@]12C	1.54 µM
CCN(C(=O)c1ccc(C(C)(C)C)cc1)c1nnc(Cn2nnc3ccccc32)s1	1.35 µM
CSc1nnc(NC(=O)c2nc(S(=O)(=O)Cc3cccc(C)c3)ncc2Cl)s1	4.03 µM
NC(c1csc(NC(=O)Nc2cccc(C(F)(F)F)c2)n1)C1CCCCC1 (centres undefined)	4.81 µM
CC(C)(C)c1ccc(CN2C3=NCCCN3c3ccccc32)cc1	0.836 µM
Oc1c(CN2CCCCC2)cc(COCc2ccccc2)c2cccnc12	0.537 µM
COc1cc(NS(C)(=O)=O)ccc1Nc1c2ccccc2nc2ccccc12	1.32 µM
O=C(c1ccccc1)N1CCN(c2ncnc3sc4c(c23)CCC4)CC1	4.14 µM
CNc1ccccc1C(C)(C)c1cc(-c2cccc(Br)c2)no1	2 µM
CC(=O)O[C@H]1CC[C@@]2(C)C(=CC[C@H]3[C@@H]4CC[C@H](C(C)=O)[C@@]4(C)CC[C@@H]32)C1	28.5 µM
Cc1nnc(NC(=O)c2nc(S(=O)(=O)Cc3ccccc3C)ncc2Cl)s1	0.812 µM
CCOc1ccc(OCC(=O)N(CCC2=CCCCC2)c2c(N)n(Cc3ccccc3)c(=O)[nH]c2=O)cc1	8.66 µM
CCOc1cc(CNCCCN2CCOCC2)cc(Br)c1OCc1ccccc1Cl	9.31 µM
O=C(Nc1ccc2nc3n(c(=O)c2c1)CCCC3)c1cc([N+](=O)[O-])ccc1F	0.361 µM
O=C(CC(O)(C(F)(F)F)C(F)(F)F)Nc1ccc(Cl)c(Cl)c1	4.97 µM
CCOC(=O)c1c(CSc2ccc(CC)cc2)oc2ccc(O)c(CN(C)C)c12	3.05 µM
Cc1nc2ccccc2c2oc(C(=O)N3CCN(C4CCCCC4)CC3)cc12	7.02 µM
CC(C)OC(=O)c1ccc(NCc2cc(O)ccc2O)cc1	1.9 µM
Cc1cc(C(=O)NNS(=O)(=O)c2cc(C(=O)O)ccc2Cl)c(C)n1-c1ccccc1	25.7 µM
Cc1ccc(-c2nc3ncccc3o2)cc1NC(=O)c1sc2ccccc2c1Cl	5.87 µM
CCOc1cc(/C=C\[N+](=O)[O-])ccc1OCC(=O)Nc1ccccc1C	< 0.26 µM
CCN1CCN(Cc2ccc(NC(=O)c3cc(NC(=O)c4cc5cccc(OC)c5o4)cc(OC)c3)cc2C(F)(F)F)CC1	10.2 µM and 9.77 µM
Cc1c(C(C)C)c(=O)n(-c2ccc(S(=O)(=O)NC3CCCCC3)cc2)n1C	1.06 µM
COc1ccccc1CNc1nc(NCc2ccccc2SC)c2sccc2n1	4.48 µM

SMILES	AC50
CC(C)c1nc(SCC(=O)Nc2cccc(C(F)(F)F)c2)c2c(=O)n(C)c(=O)n(C)c2n1	2.7 µM
CC1=NOC(=O)/C1=C\c1ccc(-c2cc(Cl)ccc2Cl)o1	5.69 µM
CCOC(=O)c1cnc(-n2nc(C)cc2C)nc1NCc1ccc2c(c1)OCO2	8.74 µM
O=C(NNC(=O)c1cccnc1SCc1cccc([N+](=O)[O-])c1)c1ccccn1	1.9 µM
Cc1c(C(=O)Nc2ccc(F)c(F)c2)oc2ccc(S(=O)(=O)N3CCCCC3)cc12	7.05 µM
CSc1nc(N2CCN(Cc3ccc4c(c3)OCO4)CC2)c2ccccc2n1	24.1 µM
Cc1sc2ncnc(N3CCN(S(=O)(=O)c4ccccc4)CC3)c2c1C	2.3 µM
Cc1cccc(C)c1NC(=O)CN(C)C(=O)c1cc(S(=O)(=O)N(C)C)ccc1N1CCCC1	27.1 µM
O=C(Nc1cccc(-c2ccc(N3CCCCC3)nn2)c1)C(F)(F)F	9.07 µM
O=C1[C@H]2[C@@H](c3ccc(F)cc3)N3C(=O)N(c4ccccc4)C(=O)[C@@]3(Cc3ccccc3)[C@H]2C(=O)N1C1CCCCC1	> 70 µM (inactive)
CCCC(c1nnnn1Cc1ccc(OC)cc1)N1CCN(c2ccccc2)CC1 (centres undefined)	31.9 µM
CCCc1nc2c(=O)n(C)c(=O)nc-2n(C)n1	2.17 µM
Cc1nc2nc(C)n(CCN3CCOCC3)c(=O)c2c(-c2cccc([N+](=O)[O-])c2)c1C(=O)CCCCCCCCCCN1CCC(c2ccccc2)(c2ccccc2)CC1	7.38 µM
CCN(CC)S(=O)(=O)c1ccc(-c2ccc(S(=O)(=O)N(CC)CC)cc2)cc1	3.81 µM
CC(C)(C)C(=O)NC(=S)NNC(=O)c1sc2ccccc2c1Cl	19.1 µM
O=C(Nc1cccc(Cl)c1Cl)C1CC(=O)N(c2ccc(Br)cc2)C1 (centres undefined)	8.23 µM
O=C(c1cc2nc(-c3ccc(F)cc3)cc(C(F)(F)F)n2n1)N1CCCCC1c1cccnc1 (centres undefined)	2.37 µM
Cc1c(CCCl)c(Cl)n2c(nc3ccccc32)c1C#N	0.912 µM
Cc1ccc(-c2nc(-c3ccccn3)no2)cc1	1.96 µM
CC(Nc1ncnc2sccc12)c1ccccc1 (centres undefined)	0.505 µM
COC(=O)c1ccc(CCc2cc(O)ccc2O)cc1	3.14 µM
O=C1ON=C(c2ccccc2)/C1=C/c1ccc(-c2ccccc2[N+](=O)[O-])o1	7.21 µM
COc1cc(/C=C/C(=O)c2ccc3c(c2)OCCO3)cc(Br)c1OCC(=O)N(C)C	2.63 µM
Cc1ccc(S(=O)(=O)CC2CSc3nc4ccccc4n32)cc1 (centres undefined)	0.347 µM
Cc1ccc(NN2C(=O)C=C(c3ccc(Cl)cc3)C2=O)cc1	6.53 µM
Cc1cc(C)nc(SCC(=O)Nc2ccnc3ccccc23)n1	0.462 µM

SMILES	AC50
CS(=O)(=O)c1ccc(C(=O)OCC(=O)N2CCOCC2)cc1[N+](=O)[O-]	17.5 µM
NC(Cc1ccc(Cl)cc1)c1csc(NC(=O)NCC2CCCCC2)n1 (centres undefined)	6.58 µM
COC(=O)c1ccccc1NC(=O)c1nc(S(=O)(=O)Cc2ccccc2)ncc1Cl	0.428 µM
CC(C)(O)/C=C/C(=O)C(C)(O)C1C(O)CC2(C)C3CC=C4C(C=C(O)C(=O)C4(C)C)C3(C)C(=O)CC12C (centres undefined)	1.83 µM
C[C@H]1CCC/C=C/[C@@H]2C[C@H](O)C[C@H]2[C@H](O)/C=C/C(=O)O1	3.15 µM and 2.2 µM
CCc1ccc(CNCc2ccc(OCC(O)CN(C)Cc3ccccc3)cc2)nc1 (centres undefined)	4.43 µM
COC(=O)C1=C(c2ccc(F)cc2OCc2ccccc2)C[C@@H]2CC[C@H]1N2C(=O)NCc1ccc(C(F)(F)F)cc1	9.14 µM
C=C1C(=O)O[C@@H]2C[C@@H](C)[C@@H]3C=CC(=O)[C@@]3(C)[C@@H](O)[C@H]12	0.825 µM
CC[C@H](C)C(=O)O[C@H]1C[C@@H](C)C=C2C=C[C@H](C)[C@H](CC[C@@H]3C[C@@H](O)CC(=O)O3)[C@H]21	1.62 µM
CCC(C)(O)C(=O)OC1C(=O)OC2CC3C(C)=CC(=O)C(O)C3(C)C3C4(O)OCC23C1C(C)C4O (centres undefined)	0.866 µM
O=C(Nc1cc2c3c(c1)C1CCCC1CN3CC1CCCC21)c1ccc([N+](=O)[O-])cc1 (centres undefined)	2.2 µM
COc1cccc(CNc2nc(NCC3CC3)nc3ccsc23)c1	5.86 µM
COc1ccc(OC)c(NC(=O)c2nc(S(=O)(=O)Cc3ccccc3)ncc2Cl)c1	2.08 µM
COc1ccc(Nc2nc(N3CCCC3)c3ccccc3n2)cc1	3.67 µM
CC(=O)C1(C)CCC2C3C=C(C)C4=CC(=O)CCC4(C)C3CCC21C (centres undefined)	9.83 µM
CCCCC(=O)NC(c1ccccc1)c1ccc2cccnc2c1O (centres undefined)	2.35 µM
Cc1cc(Cl)n2c(nc3ccccc32)c1C#N	1.85 µM
CCCSc1nnc(CSc2nc3ccccc3s2)n1-c1ccccc1	7.05 µM
Cc1nc2ccccc2n1Cc1ccc(Cl)cc1	1.46 µM
CS(=O)(=O)c1ccc(Sc2nc3ccccc3s2)c([N+](=O)[O-])c1	9.73 µM
C=C1C(=O)OC2CC3(C)OC3C3OC3C3=CC(OC3=O)C12 (centres undefined)	1.45 µM
Nc1nc(N)c2cc(S(=O)(=O)c3cccc(C(F)(F)F)c3)ccc2n1	5.22 µM
Cc1nn(-c2ccccc2)c(C)c1C(=O)OC(C)C(=O)NC1CCCCC1 (centres undefined)	8.19 µM
COc1ccc(-c2nc(-c3ccccn3)no2)cc1	1.92 µM
CCCCN(C(C)=O)c1ccc2c(c1)C1CC2CCN1C(=O)OCc1ccccc1 (centres undefined)	1.37 µM
O=c1oc2ccccc2cc1-c1cn2ccccc2n1	3.64 µM
